Among the test systems are ACHN; HOP-92; HT-29; Hs-578T; MCF7; NCI-H226; NCI-H23; NCI-H522; OVCAR-5; OVCAR-8; PC-3; SF-268; SF-539; SK-MEL-28; SK-MEL-5; SW-620; U-251; UACC-257; UACC-62; UO-31.
What all share (experiment): NCI tumour cell line growth inhibition, 48 h

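These data come from cells grown in 96-well plates and exposed to compound for 48 hours at five concentrations. GI50: concentration for 50% inhibition of growth.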 Calls of active or inactive are those of the source. Rule as the data show it: active = GI50 up to about 1.1 µM and inactive = higher. Some results are limits rather than exact numbers.

For `Cc1ccc(-c2nc(-c3nccc4ccccc34)oc2-c2ccccc2)cc1`, the GI50 was 92.9 µM (inactive) in the assay with ACHN; 30.3 µM (inactive) in the assay with HOP-92; 5.64 µM (inactive) in the assay on HT-29; 75 µM (inactive) in the assay with Hs-578T; 27.9 µM (inactive) in the assay with MCF7; > 100 µM (inactive) in the assay with NCI-H226. Moreover, the GI50 is > 100 µM (inactive) with NCI-H23; 43 µM (inactive) in the assay on NCI-H522; > 100 µM (inactive) in the assay on OVCAR-5; 79.1 µM (inactive) in the assay with OVCAR-8; > 100 µM (inactive) with PC-3; 73.5 µM (inactive) in the assay with SF-268. The GI50 in the assay with SF-539 is 46 µM (inactive); in the assay with SK-MEL-28, > 100 µM (inactive); in the assay with SK-MEL-5, 28.1 µM (inactive); in the assay on SW-620, 88.3 µM (inactive); in the assay on U-251, 72.9 µM (inactive); in the assay with UACC-257, 85.3 µM (inactive). Further, the GI50 was 46.6 µM (inactive) with UACC-62 and 95.9 µM (inactive) with UO-31.

As for `CCOc1ccc2c(c1)C(/C(C(Cl)=C(Cl)Cl)=[N+](/[O-])OC(=O)c1ccccc1)=N2`, the GI50 in the assay with ACHN was 73.1 µM (inactive); in the assay with HOP-92, 38.1 µM (inactive); in the assay on HT-29, 61.2 µM (inactive); in the assay on Hs-578T, 52.8 µM (inactive); in the assay with MCF7, 39 µM (inactive); in the assay with NCI-H226 it was 37.3 µM (inactive). Further, the GI50 with NCI-H23 is 48.6 µM (inactive); with NCI-H522, 35.2 µM (inactive); in the assay on OVCAR-5, 76.4 µM (inactive); with OVCAR-8, 72.8 µM (inactive); in the assay on PC-3, 30.9 µM (inactive); in the assay with SF-268, 44.5 µM (inactive). The GI50 in the assay with SF-539 was 79.3 µM (inactive); in the assay on SK-MEL-28 it was > 100 µM (inactive); with SK-MEL-5, 35.3 µM (inactive); in the assay with SW-620, 65.8 µM (inactive); in the assay on U-251, 46.7 µM (inactive); in the assay on UACC-257, 43.2 µM (inactive). Moreover, the GI50 in the assay with UACC-62 was 77.6 µM (inactive); in the assay on UO-31, > 100 µM (inactive).

With `NC(CCC(=O)c1ccccn1)C(=O)O` (stereo not given), the GI50 in the assay on ACHN, in the assay with HOP-92, with HT-29, in the assay on Hs-578T, in the assay with MCF7 and in the assay on NCI-H226 was > 100 µM (inactive) each time. For the same molecule, the GI50 in the assay with NCI-H23, in the assay with NCI-H522, in the assay on OVCAR-5, in the assay with OVCAR-8, in the assay with PC-3 and in the assay with SF-268 was > 100 µM (inactive) each time. Besides, the GI50 with SF-539, in the assay with SK-MEL-28, in the assay with SK-MEL-5, with SW-620, in the assay with U-251 and in the assay with UACC-257 was > 100 µM (inactive) in each case. In addition, the GI50 in the assay with UACC-62 and in the assay on UO-31 was > 100 µM (inactive) each time.

For `COC(=O)C(Cc1ccccc1)NP(=O)(O)OCC1OC(n2cc(Br)c(=O)[nH]c2=O)CC1O` (stereo not given), the GI50 in the assay with ACHN, with HOP-92, with HT-29, in the assay with Hs-578T, in the assay on MCF7 and in the assay on NCI-H226 was > 100 µM (inactive) each time. The GI50 with NCI-H23, with NCI-H522, with OVCAR-5, in the assay on OVCAR-8, with PC-3 and in the assay on SF-268 was > 100 µM (inactive) each time. Besides, the GI50 with SF-539, in the assay on SK-MEL-28, in the assay on SK-MEL-5, in the assay on SW-620, in the assay with U-251 and in the assay with UACC-257 was > 100 µM (inactive) in each case. The GI50 in the assay on UACC-62 and in the assay with UO-31 was > 100 µM (inactive) each time.

On to `COC(=O)[C@]1(C)CCC[C@]2(C)[C@H]3CC[C@]4(C(C)C)OO[C@@H](O4)[C@]34O[C@@H]4C[C@H]21`, for which the GI50 in the assay with ACHN was 0.56 µM (active); with HOP-92, 1.97 µM (inactive); in the assay with HT-29, 1.82 µM (inactive); in the assay on Hs-578T, 2.63 µM (inactive); with MCF7 it was 2.19 µM (inactive); with NCI-H226 it was 4.49 µM (inactive). Further, the GI50 in the assay on NCI-H23 is 6.56 µM (inactive); with NCI-H522 it was 1.43 µM (inactive); in the assay with OVCAR-5, 5.18 µM (inactive); in the assay with OVCAR-8, 3.61 µM (inactive); in the assay on PC-3, 1.48 µM (inactive); in the assay on SF-268 it was 2.24 µM (inactive). Besides, the GI50 was 10.6 µM (inactive) with SF-539; 16.3 µM (inactive) in the assay with SK-MEL-28; 1.69 µM (inactive) in the assay on SK-MEL-5; 3.1 µM (inactive) in the assay with SW-620; 3.65 µM (inactive) in the assay with U-251; 14.9 µM (inactive) in the assay with UACC-257. In addition, the results for the GI50 in the assay on UACC-62 and in the assay on UO-31 were 5.3 µM (inactive) and 0.641 µM (active), respectively.

Turning to `O=C(CSc1nc2ccc(Cl)cc2c(=O)n1-c1ccccc1)N/N=C1\C(=O)Nc2ccc(F)cc21`, the GI50 in the assay with ACHN was 1.98 µM (inactive); in the assay on HOP-92, 2.49 µM (inactive); with HT-29, 2.2 µM (inactive); with Hs-578T, 4.25 µM (inactive); with MCF7 it was 2.1 µM (inactive); in the assay with NCI-H226, 3.5 µM (inactive). The GI50 is 2.92 µM (inactive) in the assay on NCI-H23; 1.81 µM (inactive) with NCI-H522; 2.9 µM (inactive) in the assay with OVCAR-5; 1.69 µM (inactive) with OVCAR-8; 2.39 µM (inactive) with PC-3; 2.82 µM (inactive) in the assay on SF-268. The GI50 with SF-539 is 2.86 µM (inactive); with SK-MEL-28 it was 3.05 µM (inactive); in the assay with SK-MEL-5 it was 3.13 µM (inactive); with SW-620, 2.33 µM (inactive); with U-251, 1.74 µM (inactive); with UACC-257 it was 3.56 µM (inactive). Moreover, the GI50 is 2.39 µM (inactive) with UACC-62 and 0.189 µM (active) in the assay with UO-31.

As for `CCOC(=O)c1c(N2CCOCC2)[nH]c(=O)c(C(c2ccco2)c2c(O)c(C(=O)OCC)c(N3CCOCC3)[nH]c2=O)c1O`, the GI50 in the assay on ACHN was > 100 µM (inactive); with HOP-92 it was 80.9 µM (inactive); with HT-29, > 100 µM (inactive); in the assay on Hs-578T it was > 100 µM (inactive); in the assay with MCF7, > 100 µM (inactive); with NCI-H226, > 100 µM (inactive). Besides, the GI50 with NCI-H23, with NCI-H522, with OVCAR-5, in the assay with OVCAR-8, with PC-3 and with SF-268 was > 100 µM (inactive) each time. Also, the GI50 in the assay on SF-539, in the assay on SK-MEL-28, in the assay with SK-MEL-5, in the assay with SW-620, in the assay with U-251 and in the assay on UACC-257 was > 100 µM (inactive) throughout. Moreover, the GI50 in the assay on UACC-62 and in the assay with UO-31 was > 100 µM (inactive) throughout.

Take `CC(C)(C)OC(=O)/C=C/[C@@H](CCC(=O)/C=C/[C@H](/C=C\CCCC(=O)O)NC1(c2ccccc2)c2ccccc2-c2ccccc21)O[Si](C)(C)C(C)(C)C`: the GI50 was 17.8 µM (inactive) in the assay on ACHN; 4.8 µM (inactive) in the assay with HOP-92; 14.7 µM (inactive) in the assay with HT-29; 38.9 µM (inactive) in the assay on Hs-578T; 15.9 µM (inactive) with MCF7; 18.3 µM (inactive) in the assay with NCI-H226. For the same molecule, the GI50 is 16.3 µM (inactive) in the assay with NCI-H23; 18.5 µM (inactive) in the assay on NCI-H522; 20.5 µM (inactive) in the assay with OVCAR-5; 18.1 µM (inactive) in the assay with OVCAR-8; 13.5 µM (inactive) in the assay on PC-3; 17.1 µM (inactive) in the assay with SF-268. Further, the GI50 in the assay on SF-539 is 18.2 µM (inactive); with SK-MEL-28 it was 25.8 µM (inactive); with SK-MEL-5, 16.9 µM (inactive); in the assay with SW-620, 26.9 µM (inactive); in the assay on U-251 it was 16.3 µM (inactive); with UACC-257, 17.8 µM (inactive). Besides, the values for the GI50 in the assay with UACC-62 and with UO-31 were 13.9 µM (inactive) and 15.2 µM (inactive), respectively.

On to `Nc1cc2c3c(c1)Oc1cc(N)cc4c1C3c1c(cc(N)cc1O4)O2`, for which the GI50 is 22 µM (inactive) in the assay with ACHN; 57.5 µM (inactive) with HOP-92; 25.3 µM (inactive) with HT-29; 24.2 µM (inactive) in the assay with Hs-578T; 24.8 µM (inactive) in the assay with MCF7; 3.07 µM (inactive) in the assay with NCI-H226. The GI50 with NCI-H23 was 33 µM (inactive); with NCI-H522, 21.2 µM (inactive); in the assay on OVCAR-5 it was 29 µM (inactive); with OVCAR-8, 9.48 µM (inactive); with PC-3, 26.1 µM (inactive); in the assay with SF-268, 12.5 µM (inactive). The GI50 is 15.7 µM (inactive) with SF-539; 47.3 µM (inactive) in the assay with SK-MEL-28; 11.9 µM (inactive) in the assay with SK-MEL-5; 33.7 µM (inactive) in the assay on SW-620; 43.1 µM (inactive) in the assay with U-251; 30.5 µM (inactive) with UACC-257. Besides, the results for the GI50 in the assay on UACC-62 and in the assay on UO-31 were 26.4 µM (inactive) and 47.2 µM (inactive), respectively.

With `COc1ccc(/C=C2\CN(C)CC3=C2OC(N)=C(C#N)C3c2ccc(OC)cc2)cc1` (stereo not given), the GI50 in the assay on ACHN was 29.6 µM (inactive); with HOP-92, 4.66 µM (inactive); in the assay on HT-29 it was > 56.8 µM (inactive); in the assay with Hs-578T, 88.1 µM (inactive); in the assay on MCF7, 19.5 µM (inactive); in the assay with NCI-H226 it was > 100 µM (inactive). Moreover, the GI50 in the assay on NCI-H23 is > 68.2 µM (inactive); in the assay with NCI-H522, 14.5 µM (inactive); in the assay on OVCAR-5, > 100 µM (inactive); with OVCAR-8, 19.9 µM (inactive); in the assay with PC-3, > 25.8 µM (inactive); with SF-268 it was 48.6 µM (inactive). For the same molecule, the GI50 in the assay on SF-539 was > 100 µM (inactive); in the assay on SK-MEL-28, > 100 µM (inactive); with SK-MEL-5 it was > 62.1 µM (inactive); in the assay with SW-620, > 94.2 µM (inactive); in the assay on U-251, 38 µM (inactive); in the assay on UACC-257 it was 50.5 µM (inactive). Further, the GI50 is > 100 µM (inactive) in the assay with UACC-62 and > 50.5 µM (inactive) in the assay on UO-31.

Source of the values: ChEMBL document CHEMBL1201862, “PubChem BioAssay data set” (2004).
